Results published in patent US11155844B2, “Process for the production of ortho-aminobenzoic acid and/or aniline from fermentable substrate using recombinant yeast” (Covestro Deutschland AG, priority 2015, dated 2021).
Values after ≈ are worked out from the molar mass of the structure shown.

Assay: solubility of oAB in water depending on the pH
Assay type: physicochemical
Settings: plasma or biological fluid; pH between 3.0 and 4.0; fermentation broth; read-out: oAB remaining dissolved at the solubility minimum

## Nc1ccccc1C(=O)O [oAB, 2-aminobenzoic acid]
  solubility: ~5000 µg/mL (≈ 36.5 mM)
